Source: the supplement of paper PMC4862054

How the values were obtained:
Assay in all cases: normalised viability (% of control), CellTiter-Blue; higher = more viable cells (about 100 = DMSO control)
Conditions in all cases: incubation time: 72 h
CAL-51 [1] = tested on: CAL-51
Procedure: (§1)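 DSRT, CellTiter-Blue viability, 72 h incubation. Signal is normalised to DMSO and benzethonium chloride controls. Value is the normalised response at dose 6.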

MDA-MB-453 [2] = tested on: MDA-MB-453
Procedure: as §1

CAL-85-1 [3] = tested on: CAL-85-1
Procedure: as §1

CAL-148 [4] = tested on: CAL-148
Procedure: as §1

DU-4475 [5] = tested on: DU-4475
Procedure: as §1

HDQ-P1 [6] = tested on: HDQ-P1
Procedure: as §1

CAL-51 [7] = tested on: CAL-51; remark: listed apart in the source
Procedure: (§2)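 DSRT, CellTiter-Blue viability, 72 h incubation. Signal is normalised to DMSO and benzethonium chloride controls. Value is the normalised response at dose 9.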

MDA-MB-453 [8] = tested on: MDA-MB-453; remark: listed apart in the source
Procedure: as §2

CAL-85-1 [9] = tested on: CAL-85-1; remark: listed apart in the source
Procedure: as §2

CAL-148 [10] = tested on: CAL-148; remark: listed apart in the source
Procedure: as §2

DU-4475 [11] = tested on: DU-4475; remark: listed apart in the source
Procedure: as §2

HDQ-P1 [12] = tested on: HDQ-P1; remark: listed apart in the source
Procedure: as §2

Row | Structure (SMILES) | normalised viability (CAL-51 [1]) | normalised viability (MDA-MB-453 [2]) | normalised viability (CAL-85-1 [3]) | normalised viability (CAL-148 [4]) | normalised viability (DU-4475 [5]) | normalised viability (HDQ-P1 [6]) | normalised viability (CAL-51 [7]) | normalised viability (MDA-MB-453 [8]) | normalised viability (CAL-85-1 [9]) | normalised viability (CAL-148 [10]) | normalised viability (DU-4475 [11]) | normalised viability (HDQ-P1 [12])
1 | COc1ccc(S(=O)(=O)Nc2cccnc2Nc2ccc(O)cc2)cc1 [ABT-751] (300 nM) | 94.3% | 39.5% | 58.7% | 98.6% | 80.7% | 55.8% |  |  |  |  |  | 
2 | Cc1cc(Nc2nc(N[C@@H](C)c3ncc(F)cn3)ncc2Cl)[nH]n1 [AZD1480] (30 nM) | 113% | 117% | 91.3% | 103% | 109% | 78.1% |  |  |  |  |  | 
3 | CNC(=O)c1ccccc1Sc1ccc2c(/C=C/c3ccccn3)n[nH]c2c1 [Axitinib] (300 nM) | 96.1% | 96.8% | 83.6% | 94% | 103% | 40.1% |  |  |  |  |  | 
4 | CC(O)(CS(=O)(=O)c1ccc(F)cc1)C(=O)Nc1ccc(C#N)c(C(F)(F)F)c1 (centres undefined) [Bicalutamide] (300 nM) | 108% | 110% | 95% | 107% | 93.6% | 55% |  |  |  |  |  | 
5 | CCNC(=O)CCC/C=C\C[C@@H]1[C@@H](/C=C/[C@@H](O)CCc2ccccc2)[C@H](O)C[C@@H]1O [Bimatoprost] (165 nM) | 116% | 102% | 96.4% | 94.6% | 97.6% | 81.4% |  |  |  |  |  | 
6 | COc1cc(Nc2c(C#N)cnc3cc(OCCCN4CCN(C)CC4)c(OC)cc23)c(Cl)cc1Cl [Bosutinib] (300 nM) | 117% | 88.2% | 108% | 82.2% | 99.7% | 68.5% |  |  |  |  |  | 
7 | CCN(CC)CCCC(C)Nc1ccnc2cc(Cl)ccc12 (centres undefined) [Chloroquine] (29.7 nM) | 88.5% | 98.8% | 92.7% | 89.9% | 116% | 123% |  |  |  |  |  | 
8 | CCN(CC)CCCC(C)Nc1ccnc2cc(Cl)ccc12 (centres undefined) [Chloroquine] (990 nM) |  |  |  |  |  |  | 89.5% | 98.4% | 91.3% | 84.8% | 115% | 126%
9 | CN(Cc1cnc2nc(N)nc(N)c2n1)c1ccc(C(=O)N[C@@H](CCC(=O)O)C(=O)O)cc1 [Methotrexate] (10000 nM) |  |  |  |  |  |  | 39.2% | 90% | 65.3% | 69.1% | 102% | 99.7%
